Experimental data published in US8338638B2, “Antimicrobial derivatives of anacardic acid and process for preparing the same” (Unichem Laboratories Ltd., priority 2006, dated 2012).
Values after ≈ are worked out from the molar mass of the structure shown. Where two headings read alike, the source gives them in different places.

Columns and labels:
[1] = test system: MRSA; assay: Broth assay, antibacterial activity (MIC/MBC) against MRSA; type: cell-based, Methicillin resistant Stapphalococcus aureus; conditions: Staphylococcus aureus; for MIC: 24 h
Method: (§1) The invention specifically relates to the process for the preparation of antimicrobial derivatives of saturated anacardic acid (C15:0). The mixture of anacardic acids chromatographically purified from CNSL was hydrogenated using Pd—C to get the saturated anacardic acid (C15:0). Said derivatives were prepared by adopting the techniques used in synthetic chemistry for nitration, halogenation and acetylation of various organic compounds. The synthesized derivatives were assayed for anti bacterial activity against Stapphalococcus aureus and Methicillin resistant Stapphalococcus aureus and Enterococcus fecalis by the broth assay used for antibiotic susceptibility tests and the minimum inhibitory concentration (MIC) and minimum bactericidal concentration (MBC) determined.
(§2) Procedure for Antimicrobial Testing:
(§3) The bacterial colonies from Luria-Bertani (LB) agar plates were inoculated into sterile LB broth and incubated in an incubator shaker for 12 h. This culture was diluted such that the innoculum when added to the test broth would correspond to 10^5 colony forming units (CFU). The broth assays were done in sterile culture tubes containing 5 mL of LB medium. The test compounds dissolved in ethanol and controls were added to these tubes and then the innoculum was added and the tubes incubated at 37° C. for 24 h. After 24 h incubation the OD600 was recorded and then plated on LB agar plates and incubated fore 24 h at 37° C. The colonies were counted and the minimum inhibitory concentration (MIC) and minimum bactericidal concentration (MBC) calculated. The MIC is determined by the minimum concentration of the sample at which no growth was observed as determined by measuring the OD600. The MBC is determined by the concentration at which there is a reduction in the cfu in the broth assay from 10^5 to 10^3 counted after plating on LB agar plates.

[2] = test system: Sa (NCTC8325); assay: Broth assay, antibacterial activity (MIC/MBC) against Sa (NCTC8325); type: cell-based, Stapphalococcus aureus; conditions: for MIC: 24 h
Method: as §1, §2, §3

[3] = test system: E. fecalis; assay: Broth assay, antibacterial activity (MIC/MBC) against E. fecalis; type: cell-based; conditions: Enterococcus; for MIC: 24 h
Method: as §1, §2, §3

[4] = test system: MRSA; conditions: against MRSA; Kube et al; cited from earlier work
[5] = LB broth, 37° C., no growth by OD600, read-out: MIC
[6] = reduction in cfu from 10^5 to 10^3 after plating on LB agar, read-out: MBC
[7] = Sa (NCTC8325), LB broth, 37° C., no growth by OD600, read-out: MIC
[8] = Sa (NCTC8325), reduction in cfu from 10^5 to 10^3 after plating on LB agar, read-out: MBC
[9] = E. fecalis, LB broth, 37° C., no growth by OD600, read-out: MIC
[10] = E. fecalis, reduction in cfu from 10^5 to 10^3 after plating on LB agar, read-out: MBC

SMILES | MIC [1, 5] | MBC [1, 6] | MIC [2, 7] | MBC [2, 8] | MIC [3, 9] | MBC [3, 10] | minimum inhibitory concentration (MIC) [4] | MBC [1] | MIC [1] | MBC [2] | MIC [2] | MBC [3] | MIC [3]
CCCCCCCCCCCCCCCc1cccc(O)c1C(=O)O [AA, 6-pentadecyl salicylic acid, reference compound] | > 50 µg/mL | > 50 µg/mL | > 10 µg/mL | > 10 µg/mL | 0.5 µg/mL (≈ 1.43 µM) | 6 µg/mL (≈ 17.2 µM) | 1600 µg/mL (≈ 4590 µM) | – | – | – | – | – | –
CCCCCCCCCCCCCCCc1cccc(OC(C)=O)c1C(=O)O [AAA, 6-Pentadecyl-2-acetyloxybenzoic acid] | 2 µg/mL (≈ 5.12 µM) | 6 µg/mL (≈ 15.4 µM) | 6 µg/mL (≈ 15.4 µM) | 7 to 8 µg/mL (≈ 17.9 to 20.5 µM) | 1 µg/mL (≈ 2.56 µM) | 6 µg/mL (≈ 15.4 µM) | – | – | – | – | – | – | –
CCCCCCCCCCCCCCCc1c([N+](=O)[O-])cc([N+](=O)[O-])c(OC(C)=O)c1C(=O)O [ADAA, 3,5-Dinitro-6-pentadecyl-2-acetyloxybenzoic acid] | 4 µg/mL (≈ 8.32 µM) | 10 µg/mL (≈ 20.8 µM) | 2 µg/mL (≈ 4.16 µM) | 6 µg/mL (≈ 12.5 µM) | 6 µg/mL (≈ 12.5 µM) | 6 µg/mL (≈ 12.5 µM) | – | – | – | – | – | – | –
CCCCCCCCCCCCCCCc1c(Br)ccc(OC(C)=O)c1C(=O)O [ADBAA, 5-Bromo-6-pentadecyl-2-acetyloxybenzoic acid] | 9 to 10 µg/mL (≈ 19.2 to 21.3 µM) | > 10 µg/mL | > 10 µg/mL | > 10 µg/mL | 1 µg/mL (≈ 2.13 µM) | 3 µg/mL (≈ 6.39 µM) | – | – | – | – | – | – | –
CCCCCCCCCCCCCCCc1cc([N+](=O)[O-])c([N+](=O)[O-])c(OC(C)=O)c1C(=O)O [ANAA, 3,4-Dinitro-6-pentadecyl-2-acetyloxybenzoic acid] | 2 µg/mL (≈ 4.16 µM) | > 10 µg/mL | 1 µg/mL (≈ 2.08 µM) | > 10 µg/mL | 0.5 µg/mL (≈ 1.04 µM) | 7 µg/mL (≈ 14.6 µM) | – | – | – | – | – | – | –
CCCCCCCCCCCCCCCc1c([N+](=O)[O-])cc([N+](=O)[O-])c(O)c1C(=O)O [DAA, 3,5-Dinitro-6-pentadecyl-2-hydroxybenzoic acid] | – | – | – | – | – | – | – | 6 µg/mL (≈ 13.7 µM) | 3 µg/mL (≈ 6.84 µM) | 3 to 5 µg/mL (≈ 6.84 to 11.4 µM) | 2 µg/mL (≈ 4.56 µM) | 6 µg/mL (≈ 13.7 µM) | 6 µg/mL (≈ 13.7 µM)
CCCCCCCCCCCCCCCc1c(Br)ccc(O)c1C(=O)O [DBAA, 5-Bromo-6-pentadecyl-2-hydroxybenzoic acid] | > 20 µg/mL | > 20 µg/mL | > 10 µg/mL | > 10 µg/mL | 6 µg/mL (≈ 14 µM) | 6 µg/mL (≈ 14 µM) | – | – | – | – | – | – | –
CCCCCCCCCCCCCCCc1cccc(OC)c1C(=O)O [MAA, 2-Methoxy-6-Pentadecyl-benzoic acid] | 1 µg/mL (≈ 2.76 µM) | 4 µg/mL (≈ 11 µM) | 1 µg/mL (≈ 2.76 µM) | 8 µg/mL (≈ 22.1 µM) | 1 µg/mL (≈ 2.76 µM) | 6 µg/mL (≈ 16.5 µM) | – | – | – | – | – | – | –
CCCCCCCCCCCCCCCc1cccc(OC)c1C(=O)NC1C(=O)N2C1SC(C)(C)C2C(=O)O (centres unmarked) [MAA-APA] | 10 to 20 µg/mL (≈ 17.8 to 35.7 µM) | > 20 µg/mL | > 10 µg/mL | > 10 µg/mL | 6 µg/mL (≈ 10.7 µM) | > 10 µg/mL | – | – | – | – | – | – | –
C=C[C@@](C)(/C=C/c1ccc(OC(=O)c2c(CCCCCCCCCCCCCCC)cccc2OC)cc1)CCC=C(C)C [MAA-Ba] | > 20 µg/mL | > 20 µg/mL | > 10 µg/mL | > 10 µg/mL | 6 µg/mL (≈ 9.98 µM) | > 10 µg/mL | – | – | – | – | – | – | –
CCCCCCCCCCCCCCCc1cccc(OC)c1C(=O)NC(Cc1ccccc1)C(=O)O (centres unmarked) [MAA-F] | > 20 µg/mL | > 20 µg/mL | > 10 µg/mL | > 10 µg/mL | 6 µg/mL (≈ 11.8 µM) | > 10 µg/mL | – | – | – | – | – | – | –
CCCCCCCCCCCCCCCc1cccc(OC)c1C(=O)Nc1ccc(C(=O)O)cc1 [MAA-PABA] | > 20 µg/mL | > 20 µg/mL | > 10 µg/mL | > 10 µg/mL | 6 µg/mL (≈ 12.5 µM) | > 10 µg/mL | – | – | – | – | – | – | –
CCCCCCCCCCCCCCCc1cccc(OC)c1C(=O)Nc1ccc([N+](=O)[O-])cc1 [MAA-PNA] | > 20 µg/mL | > 20 µg/mL | > 10 µg/mL | > 10 µg/mL | > 10 µg/mL | > 10 µg/mL | – | – | – | – | – | – | –
CCCCCCCCCCCCCCCc1cccc(OC)c1C(=O)NC(Cc1ccc(O)cc1)C(=O)O (centres unmarked) [MAAY] | 2 µg/mL (≈ 3.8 µM) | 10 µg/mL (≈ 19 µM) | 3 to 5 µg/mL (≈ 5.71 to 9.51 µM) | > 10 µg/mL | 6 µg/mL (≈ 11.4 µM) | > 10 µg/mL | – | – | – | – | – | – | –
CCCCCCCCCCCCCCCc1c([N+](=O)[O-])cc([N+](=O)[O-])c(OC)c1C(=O)O [MDAA, 3,5-Dinitro-6-pentadecyl-2-Methoxybenzoic acid] | 2 µg/mL (≈ 4.42 µM) | 4 µg/mL (≈ 8.84 µM) | 6 µg/mL (≈ 13.3 µM) | 8 µg/mL (≈ 17.7 µM) | 0.5 µg/mL (≈ 1.1 µM) | 2 µg/mL (≈ 4.42 µM) | – | – | – | – | – | – | –
CCCCCCCCCCCCCCCc1c(Br)ccc(OC)c1C(=O)O [MDBAA, 5Bromo-6-pentadecyl-2-methoxybenzoic acid] | 0.5 µg/mL (≈ 1.13 µM) | 4 µg/mL (≈ 9.06 µM) | 3 to 5 µg/mL (≈ 6.8 to 11.3 µM) | 5 µg/mL (≈ 11.3 µM) | 1 µg/mL (≈ 2.27 µM) | 3 µg/mL (≈ 6.8 µM) | – | – | – | – | – | – | –
CCCCCCCCCCCCCCCc1cc([N+](=O)[O-])c([N+](=O)[O-])c(O)c1C(=O)O [NAA, 3,4-Dinitro-6-pentadecyl-2-hydroxybenzoic acid] | – | – | – | – | – | – | – | 10 µg/mL (≈ 22.8 µM) | 1 µg/mL (≈ 2.28 µM) | 7 to 8 µg/mL (≈ 16 to 18.2 µM) | 1 µg/mL (≈ 2.28 µM) | 7 µg/mL (≈ 16 µM) | 0.5 µg/mL (≈ 1.14 µM)
C=CCC=CCC=CCCCCCCCc1cccc(O)c1C(=O)O [triene (C15:3)] | – | – | – | – | – | – | 6.5 µg/mL (≈ 19 µM) | – | – | – | – | – | –
